Values after ≈ are worked out from the molar mass of the structure shown. Where two headings read alike, the source gives them in different places. *1 amine or outer side, *2 acyl side, *3 side chain or, on linkers, in order; H or OH if unused. Where a SMILES comes first, the peptide text is derived from it. [ ]: non-standard residue; d: D form. The star is where a group is joined. X3 = O=C(N[C@H]1C[C@@H](C(=O)[*:2])N([*:1])C1)C1CCCCC1; X2 = CCCCCCCC(=O)N[C@H]1C[C@@H](C(=O)[*:2])N([*:1])C1; Phenylacetyl(4-Ph) = O=C(Cc1ccc(-c2ccccc2)cc1)*; X4 = O=C([C@@H]1C[C@H](N[*:3])CN1[*:1])[*:2]; Diphenylacetyl = O=C(C(c1ccccc1)c1ccccc1)*
Columns and labels:
[1] = test system: Candida albicans
Description: (§1) Lyophilized peptides were weighed on a Microbalance (Mettler MT5) and dissolved in sterile water containing 0.01% acetic acid Tachyplesin was purchased from Bachem Ltd. (Bubendorf Switzerland).
(§2) The antimicrobial activities of the peptides were determined by the standard NCCLS broth microdilution method (see ref 1, below) examined in sterile 96-wells plates (Nunclon polystyrene microtiter plates) in a total volume of 100 μl. […] 10^6 colony forming units (CFU)/ml for bacteria or 5×10^3 CFU/ml for Candida. Aliquots (50 μl) of the innocula were added to 50 μl of MH broth containing the peptide in serial twofold dilutions. The microorganisms used were Escherichia coli (ATCC 25922), Pseudomnonas aeruginosa (P. aeruginosa) (ATCC 27853), Stahylococcus aureus (ATCC 29213 and ATCC 25923) and Candida albicans. A selected number of peptides were screened for activity against a larger panel of gram-negative strains. These strains were; Escherichia coli ATCC 43827 and clinical isolates of Pseudomonas (P. aeruginosa V07 14482, P. aeruginosa 15288, P. aeruginosa V02 15328 and P. aeruginosa V09 16085) and Acinetobacter (Acinetobacter V04 19905/1, Acinetobacter V12 21143/1 and Acinetobacter V12 21193/1).

[2] = test system: Escherichia coli (ATCC 25922)
Description: as §1, §2

[3] = test system: Staphylococcus aureus ATCC 25923
Description: as §1, §2

[4] = test system: Staphylococcus aureus ATCC 29213
Description: as §1, §2

[5] = test system: human red blood cells (hRBC); assay: Hemolysis of human red blood cells at 100 μg/ml peptide; details: 100 μg/ml of peptide, 20% v/v hRBC, 1 hour at 37° C.
Description: Hemolysis of red blood cells is often employed for assessment of toxicity of related compounds such as protegrin or tachyplesin. Values are given as %-lysis of red blood cells observed at a concentration of 100 μg/ml.
The peptides were tested for their hemolytic activity against human red blood cells (hRBC). Fresh hRBC were washed three times with phosphate buffered saline (PBS) by centrifugation for 10 min at 2000×g. Peptides at a concentration of 100 μg/ml were incubated with 20% v/v hRBC for 1 hour at 37° C. The final erythrocyte concentration was appr. 0.9×10^9/ml. A value of 0% resp. 100% cell lysis was determined by incubation of the hRBC in the presence of PBS alone and resp. 0.1% Triton X-100 in H2O. The samples were centrifuged and the supernatant was 20 fold diluted in PBS buffer and the optical density (OD) of the sample at […] was measured. […] Percent hemolysis was calculated as follows: (OD540peptide/OD540H2O)×100%.

[6] = test system: gram-positive and gram-negative bacteria; details: background statement; cited from earlier work
[7] = test system: human red blood cells; details: cited from earlier work

MIC Candida albicans [1] [mg/L]	MIC Escherichia coli ATCC 25922 ([2]; ATCC 25922) [mg/L]	MIC Staphylococcus aureus ATCC 25923 ([3]; ATCC 25923) [mg/L]	MIC Staphylococcus aureus ATCC 29213 ([4]; ATCC 29213) [mg/L]	Molecule	MIC Candida albicans ([1]; Table 8, Mueller-Hinton broth) [mg/L]	MIC Escherichia coli ATCC 25922 ([2]; Table 8, Mueller-Hinton broth) [mg/L]	MIC Staphylococcus aureus ATCC 25923 ([3]; Table 8, Mueller-Hinton broth) [mg/L]	MIC Staphylococcus aureus ATCC 29213 ([4]; Table 8, Mueller-Hinton broth) [mg/L]	Hemolyses hRBC (percentage hemolyses) [5] [%]	antimicrobial activity [6]	further results
25 (≈ 12.4 µM)	6.2 (≈ 3.07 µM)	6.2 (≈ 3.07 µM)	6.2 (≈ 3.07 µM)	CCCCCCCC(=O)N[C@H]1C[C@H]2C(=O)N[C@@H](CC(C)C)C(=O)N[C@@H](CCCNC(=N)N)C(=O)N[C@@H](CC(C)C)C(=O)N[C@@H](CCCCN)C(=O)N[C@@H](CCCCN)C(=O)N[C@@H](CCCNC(=N)N)C(=O)N[C@@H](CCCNC(=N)N)C(=O)N[C@@H](Cc3c[nH]c4ccccc34)C(=O)N[C@@H](CCCCN)C(=O)N[C@@H](Cc3ccc(O)cc3)C(=O)N[C@@H](CCCNC(=N)N)C(=O)N[C@@H](C(C)C)C(=O)N3CCC[C@@H]3C(=O)N2C1 [Example 257] (cyclo(KKRRWKYRV[dP][X2]LRL))							
				CC(C)C[C@@H]1NC(=O)[C@H](CCCNC(=N)N)NC(=O)[C@H](CC(C)C)NC(=O)[C@@H]2C[C@H](NC(=O)Cc3ccc(-c4ccccc4)cc3)CN2C(=O)[C@H]2CCCN2C(=O)[C@H](C(C)C)NC(=O)[C@H](CCCNC(=N)N)NC(=O)[C@H](Cc2ccc(O)cc2)NC(=O)[C@H](CCCCN)NC(=O)[C@H](Cc2c[nH]c3ccccc23)NC(=O)[C@H](CCCNC(=N)N)NC(=O)[C@H](CCCNC(=N)N)NC(=O)[C@H](CCCCN)NC(=O)[C@H](CCCCN)NC1=O [Example 258] (cyclo(KKRRWKYRV[dP][X4](Phenylacetyl(4-Ph))LRL))	12.5 (≈ 5.99 µM)	6.2 (≈ 2.97 µM)	6.2 (≈ 2.97 µM)	6.2 (≈ 2.97 µM)	23.6		
				CC(C)C[C@@H]1NC(=O)[C@H](CCCNC(=N)N)NC(=O)[C@H](CC(C)C)NC(=O)[C@@H]2C[C@H](NC(=O)C(c3ccccc3)c3ccccc3)CN2C(=O)[C@H]2CCCN2C(=O)[C@H](C(C)C)NC(=O)[C@H](CCCNC(=N)N)NC(=O)[C@H](Cc2ccc(O)cc2)NC(=O)[C@H](CCCCN)NC(=O)[C@H](Cc2c[nH]c3ccccc23)NC(=O)[C@H](CCCNC(=N)N)NC(=O)[C@H](CCCNC(=N)N)NC(=O)[C@H](CCCCN)NC(=O)[C@H](CCCCN)NC1=O [Example 259] (cyclo(KKRRWKYRV[dP][X4](Diphenylacetyl)LRL))	12.5 (≈ 5.99 µM)	6.2 (≈ 2.97 µM)	6.2 (≈ 2.97 µM)	6.2 (≈ 2.97 µM)	18.0		
12.5 (≈ 6.24 µM)	12.5 (≈ 6.24 µM)	12.5 (≈ 6.24 µM)	6.2 (≈ 3.09 µM)	CC(C)C[C@@H]1NC(=O)[C@H](CCCNC(=N)N)NC(=O)[C@H](CC(C)C)NC(=O)[C@@H]2C[C@H](NC(=O)C3CCCCC3)CN2C(=O)[C@H]2CCCN2C(=O)[C@H](C(C)C)NC(=O)[C@H](CCCNC(=N)N)NC(=O)[C@H](Cc2ccc(O)cc2)NC(=O)[C@H](CCCCN)NC(=O)[C@H](Cc2c[nH]c3ccccc23)NC(=O)[C@H](CCCNC(=N)N)NC(=O)[C@H](CCCNC(=N)N)NC(=O)[C@H](CCCCN)NC(=O)[C@H](CCCCN)NC1=O [Example 267] (cyclo(KKRRWKYRV[dP][X3]LRL))							
				CC(C)C[C@H](NC(=O)[C@H](CCCNC(=N)N)NC(=O)CNC(=O)CNC(=O)[C@@H](N)CCCNC(=N)N)C(=O)N[C@H]1CSSC[C@@H](C(=O)N[C@H](C(=O)NCC(=O)N[C@@H](CCCNC(=N)N)C(N)=O)C(C)C)NC(=O)[C@H](C(C)C)NC(=O)[C@@H]2CSSC[C@H](NC(=O)[C@H](Cc3ccc(O)cc3)NC1=O)C(=O)N[C@@H](CCCNC(=N)N)C(=O)N[C@@H](CCCNC(=N)N)C(=O)N[C@@H](CCCNC(=N)N)C(=O)N[C@@H](Cc1ccccc1)C(=O)N2 [protegrin]						potent and similar activity	hemolytic activity [7]: high hemolytic activity
				Gramicidin S						potent antimicrobial activity	hemolytic activity ([7]; background statement): high hemolytic activity

— patent publication US7253146B2, “Template-fixed peptidomimetics with antimicrobial activity” (Polyphor Ltd, priority 2001, dated 2007)
